This is an account of results in patent publication US20250263496A1, “Neutrophil-Activating Therapy for the Treatment of Cancer” (The Board of Trustees of the Leland Stanford Junior …, priority 2024, published 2025).

The test system of one assay is B16 tumors. Briefly: TUNEL staining of cell death in B16 tumors. Format: in vivo, mouse. To be noted: agent given prior to neutrophil-activating therapy. On the procedure:
Tumors were dissected away from surrounding fat, fixed in 2% paraformaldehyde for 2 hours at 4° C., equilibrated in a 30% sucrose solution at 4° C., and embedded and frozen in O.C.T. Compound (Tissue-Tek). Slides were cut to […] and blocked with 1% BSA and 10% serum matched to the secondary antibody species. The following antibodies were used for immunofluorescence: PE anti-Ly6G (clone 1A8, BioLegend), DyLight 650 anti-gp75 (clone TA99, Bio X Cell, labeled using DyLight 650 NHS Ester (Thermo Scientific)), fluorescein anti-gp75 (clone TA99, Bio X Cell, labeled using NHS-Fluorescein (Thermo Scientific)), FITC anti-DNA/RNA damage (clone 15A3, recognizing 8-hydroxy-2′-deoxyguanosine/8-oxo-7,8-dihydroguanine/8-oxo-7,8-dihydroguanosine, Abcam), and AF647 anti-C3 (clone 11H9, Novus Biologicals). DAPI (Invitrogen) was stained at 1 μg/ml. FITC/fluorescein signal was amplified using AF488 anti-FITC (ThermoFisher Scientific), and PE was amplified using biotin anti-PE (clone PE001, BioLegend) followed by DyLight 594 streptavidin (BioLegend) or DyLight 649 streptavidin (BioLegend). Prior to use of biotinylated antibodies, endogenous biotin was blocked using the Avidin/Biotin Blocking Kit (Vector Laboratories). Prior to DNA/RNA damage staining, sections were permeabilized with 0.1% Triton X-100 in 0.1% sodium citrate. TUNEL (Terminal deoxynucleotidyl transferase dUTP nick end labeling) staining was performed using the In Situ Cell Death Detection Kit, TMR Red (Roche) according to the manufacturer's instructions. […] All parameters that were quantified were acquired with identical microscope settings and adjusted identically in Photoshop, and all adjustments were applied equally across the entire tumor. Quantification was performed in ImageJ, using the wand tool on the overlaid multichannel image to draw a border around the tumor and then measuring the percent area within that border with signal for the channel of the marker quantified.

The subject of another assay is LTB4. Briefly: LTB4 ELISA of B16 tumors. The class given is in vivo, mouse. To be noted: agent given prior to neutrophil-activating therapy. The protocol: LTB4 ELISA. Tumors were dissected away from surrounding fat 24 hours post-treatment and lysed in PBS using 3 mm zirconium beads (Benchmark Scientific) in the BeadBug Microtube Homogenizer (Benchmark Scientific) for 2 cycles of 45 seconds at 3000 rpm. Crude lysate was centrifuged for 15 minutes at 16000×g at 4° C. to obtain clarified lysate. Clarified lysate was deproteinized by ethanol precipitation by adding 4 volumes of 100% ethanol, incubating on ice for 5 minutes, and centrifuging for 10 minutes at 3000×g at 4° C. Deproteinized supernatant was transferred to a new tube, ethanol was removed by evaporation at room temperature, and samples were brought to the appropriate volume in ELISA assay buffer. LTB4 content was determined with the Leukotriene B4 ELISA kit (Cayman Chemical 520111) according to the manufacturer's instructions and read with a Victor X4 fluorescence microplate reader (PerkinElmer).
Ex vivo neutrophil LTB4 assay. B16 tumors were harvested from mice 12 hours after treatment with TNF+anti-CD40+anti-gp75 and digested with collagenase IV and DNase I as described above. […] Following the incubation, the supernatant was collected, centrifuged to remove cells and debris, and analyzed for LTB4 using the Leukotriene B4 ELISA kit (Cayman Chemical 520111) as described above.

Consider `N#Cc1cc(-c2n[nH]c(-c3ccncc3)n2)ccn1` [topiroxostat], for which the “effect of agent on treatment-induced tumor cell death” value in the assay on B16 tumors is “reduced cell death”. Besides, the “effect of agent on LTB4 production” value in the assay with LTB4 was “did not prevent”.
